Test results: patent publication US20040235717A1, “Suppression of androgen receptor transactivation through new pathways to ar and ar coactivators and repressors” (priority 2001, published 2004)
Entries after “also recorded” stand apart in the source; their conditions may differ.

Key:
AR transactivation [1] = assay: AR transactivation, MMTV-CAT reporter in DU145 cells transfected with AR; format: cell-based, human
Excerpt: 250. To dissect the divergent effects of IL-6 in prostate tumor growth, Qui, Y. et al., Nature 393, 83-85 (1998); Hobisch, A. et al., Cancer Res. 58, 4640-4645 (1998); Ritchie, C. K. et al., Endocrinology 138, 1145-1150 (1997), the potential influences of IL-6 on the transactivation of AR, the master regulator of the prostate tumor growth were studied. Chang, C. et al., Science 240, 324.326 (1988); Chang, C. et al., Crit. Rev. Eukaryotic Gene Expression 5, 97-125 (1995). Because IL-6 has two major signal cascades, mitogen-activated protein kinase (MAPK) and phosphatidylinositol 3-kinase (PI3K), Qui, Y. et al., Nature 393, 83-85 (1998); Qui, Y. et al., Proc. Natl. Acad. Sci. USA 95, 3644-3649 (1998), inhibitors were applied to specifically block one of these two IL-6 signal pathways. DU145 cells were transfected for 24 h with AR and MMTV-CAT reporter gene. After transfection, the cells were serum starved for 24 h. Next, 20 μM LY294002, P098059 or vehicle was added to serum-free medium 30 min prior to IL-6 treatment. […] The cells were then harvested and AR transactivation was measured by CAT activity. […] Vlahos, C. J. et al., J. Biol. Chem. 269, 5241-5148 (1994). […] Alessi, D. R. et al., J. Biol. Chem. 270, 27489-27494 (1995).
251. IL-6's effect on PI3K activity was tested. After serum starvation for 24 h, LNCaP, PC-3 or DU145 cells were treated with 50 μg/ml IL-6 for 30 minutes. The cells were then harvested. PI3K activity was measured by using phosphatidylinositol (PT) as a substrate. […] The transactivation was measured by CAT activity.
252. Focus then turned to the two major downstream effectors of PI3K: a serine/threonine kinase (Akt/PKB) and a ribosomal S6 kinase (p70S6k). Franke, T. F. et al., Cell 88,435-437 (1997). […] The transactivation activity was determined after 24 h transfection.
262. The DU145 and PC-3 cells were maintained in Dulbecco's Minimum Essential Medium (DMEM) containing penicillin (25 μg/m1), streptomycin (25 μg/ml), and 5% fetal calf serum (FCS). The LNCaP cells were maintained in RPMI-1640 with 10% FCS. Transfections were performed using the calcium phosphate precipitation method, as previously described. Yeh, S. et al., Proc. Natl. Acad. Sci. USA 93, 5517-5521(1996).
277. The DU145 and PC-3 cells were maintained in Dulbecco's Minimum Essential Medium (DMEM) containing penicillin (25 U/ml), streptomycin (25 μg/ml), and 5% fetal calf serum (FCS). The LNCaP cells were maintained in RPMI-1640-10% FCS. Transfections were performed using the calcium phosphate precipitation method in PC-3 and DU145, as previously described. Yeh, S., Lin, H. K., Kang, H. Y., Thin, T. H., Lin, M. F. & Chang, C. (1999) Proc Natl Acad Sci U S A 96, 5458-63. LNCaP cells were transfected using SuperFect™ according to standard procedures (Qiagen).

[2] = system: estrogen receptor (ER) transactivation; assay: ER transactivation, ERE-luc in PC-3 cells transfected with ERα; format: cell-based, human; details: 10 nM E2
Protocol: 26. […] The cells were harvested and assayed for luciferase activity using MMTV-luc as a reporter. […] The cells were harvested for Northern blot analysis. […] The cells were harvested and assayed for the luciferase activity. […] (E) The PC-3 cells were transfected with ERα along with plasmids, as indicated, using ERE-luc as a reporter for 16 h, followed by 10 nM E2 treatment for another 16 h. The cells were harvested for luciferase assay. Data are means±s.d. from three independent experiments.
312. […] The cells were lysed and the luciferase activity was detected by the dual luciferase assay according to standard procedures.

AR transactivation [3] = assay: AR transactivation, MMTV-luc / (ARE)4-luc luciferase reporter assay; format: cell-based; details: LNCaP; MMTV-luc and (ARE)4-luc; 10 nM DHT
p21 expression = assay: p21 promoter activity (luciferase) and p21 protein expression; format: cell-based
Protocol: (§1) 18. […] (A) Akt suppressed androgen/AR-induced p21 promoter activity. […] (B) Androgen/AR-induced PC-3(AR)6 apoptosis and p21 protein expression was blocked by Akt PC-3(AR)6 was transfected with pCDNA3, cAkt, or dAkt, as indicated, for 16 h. […] (C) AR-induced p21 protein expression was enhanced by dAkt in LNCaP cells. […] LNCaP stable transfection with dAkt was confirmed by western blot assay using phospho-Akt (Ser473) antibody. […] TPA was then added for another 24 h and cell apoptosis was determined by TUNEL assay. […] IGF-1 was added for another 30 min, followed by 10 nM TPA treatment for another 24 h. The apoptosis was determined by TUNEL assay. The data are means±s.d. from three independent experiments.

Akt = Akt activity in LNCaP cells, Western blot with phospho-Akt (Ser473) antibody; format: cell-based; details: LNCaP cells stably transfected with dAkt
Protocol: as §1
31. […] (D) The LNCaP cells were transfected with plasmids as indicated for 16 h, and the medium was changed to 0.1% CDS media for 2 days. The cell apoptosis was determined by TUNEL assay (E) The LNCaP cells were transfected with plasmids as indicated for 16 h, harvested, and the cell extracts were subjected to SDS-PAGE. The Akt activity was determined by Western blotting using phospho(S473)-Akt antibody. (F) The U87MG cells were transfected with plasmids as indicated for 16 h, and the medium was changed 0.1% CDS media for 2 days. The cell apoptosis was determined by TUNEL assay. Data for luciferase activity and apoptosis are means±s.d. from three independent experiments.

With “dAkt: dominant-negative Akt, a kinase deficient mutant, K179A” the “Effect on DHT-induced AR transactivation (CAT activity)” value (AR transactivation [1]; presence of androgen) was “induce AR transactivation in a dose-dependent manner; also recorded: induce wtAR transactivation in a dose-dependent manner”, the “Effect on p110/p110*-repressed AR transactivation” value (AR transactivation [1]; rapamycin 20 nM 30 min prior to 1 nM DHT, dAkt co-transfected) was “reversed the p110-repressed AR transactivation; also recorded: reversed this p110*-repressed AR transactivation” and the “Effect on ER transactivation” value [2] was “suppressed ER transactivation”. For the same substance, the “Effect on AR transactivation” value (AR transactivation [3]) was “enhanced AR transactivation in both MMTV-Luc and (ARE)4-Luc”, the “p21 expression in response to androgen” value (p21 expression; LNCaP stably transfected with dAkt, 10 nM DHT 2 days, 2.5 fold without dAkt) was 14.5 fold and the “Effect on androgen/AR-induced p21 expression” value (p21 expression; PC-3 cells, transfected) was “enhanced p21 expression in a dose-dependent manner”. For the same substance, the “Reduction in Akt activity” value (Akt) was 50%.
